Patent US8334261B2, “Osteopenia animal model” (Oriental Yeast Co., Ltd., priority 2006, dated 2012)

How the values were obtained:
Type in all cases: in vivo, mouse
[1] = test system: GST-RANKL-administered 7-week-old female C57BL/6N mice; experiment: Evaluation of a bone mass increase with low-dose PTH in GST-RANKL mice; conditions: PTH 80 μg/kg; 1.0 mm
[2] = test system: 7-week-old female C57BL/6N mice; experiment: Evaluation of a bone mass increase with PTH (GST-RANKL, ovariectomy)
Protocol: GST-RANKL was administered twice to groups of 7-week-old female C57BL/6N mice at 1 mg/kg every 24 hours. Ovariectomy was performed 24 hours after the 2nd administration. In addition, parathyroid hormone (PTH) was subcutaneously administered thereto at 160 μg/kg from 24 hours after the ovariectomy for 10 consecutive days. Further, a group obtained by PBS administration and sham operation (Sham) was designated as a control group for comparison. The serum markers and the femur bone density were measured.

[3] = test system: GST-RANKL-administered 7-week-old female C57BL/6N mice; experiment: Evaluation of a bone mass increase with low-dose PTH in GST-RANKL mice
Protocol: GST-RANKL was intraperitoneally administered 2 times to groups of 7-week-old female C57BL/6N mice at 1 mg/kg every 24 hours. PTH was subcutaneously administered thereto at 40 or 80 μg/kg from 24 hours after the 2nd administration every 24 hours for 10 consecutive days. In addition, PBS was administered to a group serving as the control group for the GST-RANKL and PTH administration groups for comparison. The serum and femur were collected from each mouse 24 hours after the end of administration for 10 days.
The serum collected from each mouse was subjected to measurement of serum bone resorption markers (Ca and TRAP-5b) and an osteogenesis marker (ALP). Each femur was subjected to measurement of the total bone density, the cortical bone density, the cortical bone thickness, the cortical bone mineral content, and the cortical bone density in the diaphysis with pQCT at points 0.6, 0.8, and 1.0 mm […] the distal growth plate on the proximal side. In addition, image analysis was carried out with micro CT.

Substance: parathyroid hormone [PTH]
- cortical bone density increase in GST-RANKL administration group [1]: 3%
- bone density decrease ([2]; PTH 160 μg/kg administered to the GST-RANKL+Sham group, p<0.05): significantly suppressed
- femur bone density ([2]; PTH 160 μg/kg administered to the PBS+Sham group): significantly increased exclusively at the 1.0-mm point
- femur bone density increase ([2]; PTH 160 μg/kg in the OVX group): no significant difference
- serum TRAP-5b concentration, fold as high as the relevant group not treated with PTH ([2]; every PTH administration group, 160 μg/kg s.c. 10 consecutive days): approximately 1.5 fold
- cortical bone density in the diaphysis, increase in GST-RANKL group ([3]; PTH 40 μg/kg): 3%
- serum ALP concentration in GST-RANKL group ([3]; PTH 40 μg/kg): tended to decrease
- cancellous bone density increase in GST-RANKL group vs PBS ([3]; PTH 40 μg/kg, 0.6 mm): 25%
- cortical bone mineral content increase in GST-RANKL group vs PBS ([3]; PTH 40 μg/kg, 0.6 mm): 80%
- cortical bone thickness increase in GST-RANKL group vs PBS ([3]; PTH 40 μg/kg, 0.6 mm): 86%
- total bone density increase in GST-RANKL group vs PBS ([3]; PTH 40 μg/kg, 0.6 mm): 14%
- cancellous bone density increase in GST-RANKL group vs PBS ([3]; PTH 40 μg/kg, 0.8 mm): 28%
- cortical bone density increase in GST-RANKL group vs PBS ([3]; PTH 40 μg/kg, 0.8 mm): 4%
- cortical bone mineral content increase in GST-RANKL group vs PBS ([3]; PTH 40 μg/kg, 0.8 mm): 123%
- cortical bone thickness increase in GST-RANKL group vs PBS ([3]; PTH 40 μg/kg, 0.8 mm): 127%
- total bone density increase in GST-RANKL group vs PBS ([3]; PTH 40 μg/kg, 0.8 mm): 17%
- cortical bone density increase in GST-RANKL group vs PBS ([3]; PTH 40 μg/kg, 1.0 mm): 5%
- cortical bone mineral content increase in GST-RANKL group vs PBS ([3]; PTH 40 μg/kg, 1.0 mm): 100%
- cortical bone thickness increase in GST-RANKL group vs PBS ([3]; PTH 40 μg/kg, 1.0 mm): 98%
- total bone density increase in GST-RANKL group vs PBS ([3]; PTH 40 μg/kg, 1.0 mm): 19%
- cortical bone density in the diaphysis, increase in GST-RANKL group ([3]; PTH 80 μg/kg): 3%
- cancellous bone density increase in GST-RANKL group ([3]; PTH 80 μg/kg, 0.6 mm): 20%
- cortical bone mineral content increase in GST-RANKL group ([3]; PTH 80 μg/kg, 0.6 mm): 46%
- cortical bone thickness increase in GST-RANKL group ([3]; PTH 80 μg/kg, 0.6 mm): 50%
- total bone density increase in GST-RANKL group ([3]; PTH 80 μg/kg, 0.6 mm): 10%
- cortical bone mineral content increase in GST-RANKL group ([3]; PTH 80 μg/kg, 0.8 mm): 83%
- cortical bone thickness increase in GST-RANKL group ([3]; PTH 80 μg/kg, 0.8 mm): 89%
- total bone density increase in GST-RANKL group ([3]; PTH 80 μg/kg, 0.8 mm): 13%
- cortical bone mineral content increase in GST-RANKL group ([3]; PTH 80 μg/kg, 1.0 mm): 77%
- cortical bone thickness increase in GST-RANKL group ([3]; PTH 80 μg/kg, 1.0 mm): 79%
- total bone density increase in GST-RANKL group ([3]; PTH 80 μg/kg, 1.0 mm): 13%
- serum ALP concentration in GST-RANKL group ([3]; PTH 80 μg/kg, p<0.01): significantly decreased
- serum Ca concentration in GST-RANKL group ([3]; PTH 80 μg/kg, p<0.05): slightly significant decrease
- serum TRAP-5b concentration ([3]; PTH 40 or 80 μg/kg s.c. 10 days): no significant changes
